Drawing on the supplement of paper PMC10307832, this text covers relative viability for eight cell lines.

Common to all, as to assay: relative viability (nuclei count vs DMSO), 5 days (fraction); higher = more cells survive
Compound in the assay “Carfilzomib + Dasatinib”: CC(C)C[C@H](NC(=O)[C@H](CCc1ccccc1)NC(=O)CN1CCOCC1)C(=O)N[C@@H](Cc1ccccc1)C(=O)N[C@@H](CC(C)C)C(=O)[C@@]1(C)CO1 [Carfilzomib] + Cc1nc(Nc2ncc(C(=O)Nc3c(C)cccc3Cl)s2)cc(N2CCN(CCO)CC2)n1 [Dasatinib] (partner 0.075 µM)
The method in brief:
(§1)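 Relative viability is defined as nuclei in treated wells over nuclei in vehicle wells. Duplicate plates were run and medians reported. Lung cancer cell lines in 1536-well plates were dosed by pin tool one day after seeding, with one drug or with a fixed anchor-drug dose plus five library-drug doses (not always all listed) in √10 steps, and nuclei were counted after 5 days.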

Compound in the assay “Crizotinib + Bortezomib”: C[C@@H](Oc1cc(-c2cnn(C3CCNCC3)c2)cnc1N)c1c(Cl)ccc(F)c1Cl [Crizotinib] + CC(C)C[C@H](NC(=O)[C@H](Cc1ccccc1)NC(=O)c1cnccn1)B(O)O [Bortezomib] (partner 0.002 µM)
The method in brief:
as §1

Compound in the assay “Crizotinib + Olaparib”: C[C@@H](Oc1cc(-c2cnn(C3CCNCC3)c2)cnc1N)c1c(Cl)ccc(F)c1Cl [Crizotinib] + O=C(c1cc(Cc2n[nH]c(=O)c3ccccc23)ccc1F)N1CCN(C(=O)C2CC2)CC1 [Olaparib] (partner 8 µM)
The method in brief: as §1

Compound in the assay “Olaparib + Pemetrexed”: O=C(c1cc(Cc2n[nH]c(=O)c3ccccc23)ccc1F)N1CCN(C(=O)C2CC2)CC1 [Olaparib] + Nc1nc2[nH]cc(CCc3ccc(C(=O)N[C@@H](CCC(=O)O)C(=O)O)cc3)c2c(=O)[nH]1 [Pemetrexed] (partner 0.2 µM)
In a few lines: as §1

On to COR-L 105, for which the relative viability stood at 0.409 in the assay with Carfilzomib + Dasatinib (first compound 0.001 µM); 0.393 with Carfilzomib + Dasatinib (first compound 0.003162 µM); 0.319 with Carfilzomib + Dasatinib (first compound 0.01 µM); 0.235 with Carfilzomib + Dasatinib (first compound 0.03162 µM); 0.167 with Carfilzomib + Dasatinib (first compound 0.1 µM); 0.825 in the assay with Crizotinib + Bortezomib (first compound 0.01 µM). Moreover, the relative viability amounted to 0.778 in the assay with Crizotinib + Bortezomib (first compound 0.03162 µM); 0.787 in the assay with Crizotinib + Bortezomib (first compound 0.1 µM); 0.699 in the assay with Crizotinib + Bortezomib (first compound 0.3162 µM); 0.941 with Crizotinib + Bortezomib (first compound 1 µM); 0.661 with Crizotinib + Olaparib (first compound 0.01 µM); 0.689 in the assay with Crizotinib + Olaparib (first compound 0.03162 µM). Also, the relative viability came out at 0.757 in the assay with Crizotinib + Olaparib (first compound 0.1 µM); 0.584 with Crizotinib + Olaparib (first compound 0.3162 µM); 0.7 with Crizotinib + Olaparib (first compound 1 µM); 1.31 with Olaparib + Pemetrexed (first compound 0.08 µM); 1 with Olaparib + Pemetrexed (first compound 0.253 µM); 0.838 with Olaparib + Pemetrexed (first compound 2.53 µM). Further, the relative viability with Olaparib + Pemetrexed (first compound 8 µM) worked out at 0.914.

NCI-H596: the relative viability with Carfilzomib + Dasatinib (first compound 0.001 µM) was found to be 0.607; with Carfilzomib + Dasatinib (first compound 0.003162 µM) it was 0.583; with Carfilzomib + Dasatinib (first compound 0.01 µM) it was 0.52; in the assay with Carfilzomib + Dasatinib (first compound 0.03162 µM), 0.381; in the assay with Carfilzomib + Dasatinib (first compound 0.1 µM), 0.174; in the assay with Crizotinib + Bortezomib (first compound 0.01 µM) it was 0.894. Besides, the relative viability in the assay with Crizotinib + Bortezomib (first compound 0.03162 µM) was 1.18; with Crizotinib + Bortezomib (first compound 0.1 µM), 1.1; in the assay with Crizotinib + Bortezomib (first compound 0.3162 µM), 1.45; with Crizotinib + Bortezomib (first compound 1 µM), 0.947; with Crizotinib + Olaparib (first compound 0.01 µM), 0.698; in the assay with Crizotinib + Olaparib (first compound 0.03162 µM), 0.675. Besides, the relative viability with Crizotinib + Olaparib (first compound 0.1 µM) was 0.695; in the assay with Crizotinib + Olaparib (first compound 0.3162 µM), 0.642; in the assay with Crizotinib + Olaparib (first compound 1 µM) it was 0.671; with Olaparib + Pemetrexed (first compound 0.08 µM), 0.592; in the assay with Olaparib + Pemetrexed (first compound 0.253 µM), 0.496; with Olaparib + Pemetrexed (first compound 2.53 µM), 0.493. In the assay with Olaparib + Pemetrexed (first compound 8 µM), the relative viability is 0.543.

In the case of NCI-H2347, the relative viability in the assay with Carfilzomib + Dasatinib (first compound 0.001 µM) was 0.335; in the assay with Carfilzomib + Dasatinib (first compound 0.01 µM), 0.338; in the assay with Carfilzomib + Dasatinib (first compound 0.03162 µM), 0.197; with Carfilzomib + Dasatinib (first compound 0.1 µM) it was 0.173; with Crizotinib + Bortezomib (first compound 0.01 µM) it was 1.02; in the assay with Crizotinib + Bortezomib (first compound 0.03162 µM) it was 0.919. The relative viability with Crizotinib + Bortezomib (first compound 0.1 µM) worked out at 1.15; in the assay with Crizotinib + Bortezomib (first compound 0.3162 µM), 0.95; with Crizotinib + Bortezomib (first compound 1 µM), 1.14; with Crizotinib + Olaparib (first compound 0.01 µM) it was 0.584; with Crizotinib + Olaparib (first compound 0.03162 µM), 0.57; in the assay with Crizotinib + Olaparib (first compound 0.1 µM), 0.568. Further, the relative viability in the assay with Crizotinib + Olaparib (first compound 0.3162 µM) is 0.554; in the assay with Crizotinib + Olaparib (first compound 1 µM), 0.578; with Olaparib + Pemetrexed (first compound 0.08 µM), 0.474; with Olaparib + Pemetrexed (first compound 0.253 µM) it was 0.476; in the assay with Olaparib + Pemetrexed (first compound 2.53 µM), 0.435; in the assay with Olaparib + Pemetrexed (first compound 8 µM) it was 0.397.

Regarding HCC-78, the relative viability in the assay with Carfilzomib + Dasatinib (first compound 0.001 µM) came out at 0.228; with Carfilzomib + Dasatinib (first compound 0.003162 µM) it was 0.459; in the assay with Carfilzomib + Dasatinib (first compound 0.01 µM), 0.323; in the assay with Carfilzomib + Dasatinib (first compound 0.03162 µM), 0.435; in the assay with Carfilzomib + Dasatinib (first compound 0.1 µM), 0.2; with Crizotinib + Bortezomib (first compound 0.01 µM), 0.437. Besides, the relative viability stood at 0.466 in the assay with Crizotinib + Bortezomib (first compound 0.03162 µM); 0.472 with Crizotinib + Bortezomib (first compound 0.1 µM); 0.399 with Crizotinib + Bortezomib (first compound 0.3162 µM); 0.447 with Crizotinib + Bortezomib (first compound 1 µM); 0.737 with Crizotinib + Olaparib (first compound 0.01 µM); 0.646 in the assay with Crizotinib + Olaparib (first compound 0.03162 µM). For the same cell line, the relative viability with Crizotinib + Olaparib (first compound 0.1 µM) amounted to 0.705; with Crizotinib + Olaparib (first compound 0.3162 µM) it was 0.681; in the assay with Crizotinib + Olaparib (first compound 1 µM), 0.837; in the assay with Olaparib + Pemetrexed (first compound 0.08 µM), 0.885; with Olaparib + Pemetrexed (first compound 0.253 µM), 0.886; with Olaparib + Pemetrexed (first compound 2.53 µM), 0.906. Besides, the relative viability with Olaparib + Pemetrexed (first compound 8 µM) is 0.908.

As for NCI-H1650, the relative viability stood at 0.282 with Carfilzomib + Dasatinib (first compound 0.001 µM); 0.304 in the assay with Carfilzomib + Dasatinib (first compound 0.003162 µM); 0.207 in the assay with Carfilzomib + Dasatinib (first compound 0.01 µM); 0.165 with Carfilzomib + Dasatinib (first compound 0.03162 µM); 0.172 in the assay with Carfilzomib + Dasatinib (first compound 0.1 µM); 0.188 with Crizotinib + Bortezomib (first compound 0.01 µM). In addition, the relative viability was 0.173 with Crizotinib + Bortezomib (first compound 0.03162 µM); 0.205 with Crizotinib + Bortezomib (first compound 0.1 µM); 0.159 with Crizotinib + Bortezomib (first compound 0.3162 µM); 0.2 in the assay with Crizotinib + Bortezomib (first compound 1 µM); 0.619 with Crizotinib + Olaparib (first compound 0.01 µM); 0.801 in the assay with Crizotinib + Olaparib (first compound 0.03162 µM). Moreover, the relative viability with Crizotinib + Olaparib (first compound 0.1 µM) came to 0.71; in the assay with Crizotinib + Olaparib (first compound 0.3162 µM), 0.779; in the assay with Crizotinib + Olaparib (first compound 1 µM), 0.722; in the assay with Olaparib + Pemetrexed (first compound 0.08 µM), 0.393; with Olaparib + Pemetrexed (first compound 0.253 µM), 0.329; in the assay with Olaparib + Pemetrexed (first compound 2.53 µM) it was 0.314. The relative viability with Olaparib + Pemetrexed (first compound 8 µM) turned out to be 0.366.

As to COR-L23, the relative viability amounted to 0.478 with Carfilzomib + Dasatinib (first compound 0.001 µM); 0.523 with Carfilzomib + Dasatinib (first compound 0.003162 µM); 0.425 in the assay with Carfilzomib + Dasatinib (first compound 0.01 µM); 0.0606 in the assay with Carfilzomib + Dasatinib (first compound 0.03162 µM); 0.0642 in the assay with Carfilzomib + Dasatinib (first compound 0.1 µM); 0.927 with Crizotinib + Bortezomib (first compound 0.01 µM). In addition, the relative viability with Crizotinib + Bortezomib (first compound 0.03162 µM) was found to be 0.9; with Crizotinib + Bortezomib (first compound 0.1 µM) it was 0.915; with Crizotinib + Bortezomib (first compound 0.3162 µM), 0.989; with Crizotinib + Bortezomib (first compound 1 µM) it was 0.96; in the assay with Crizotinib + Olaparib (first compound 0.01 µM), 0.298; with Crizotinib + Olaparib (first compound 0.03162 µM), 0.343. Further, the relative viability with Crizotinib + Olaparib (first compound 0.1 µM) was found to be 0.372; with Crizotinib + Olaparib (first compound 0.3162 µM), 0.366; with Crizotinib + Olaparib (first compound 1 µM), 0.382; with Olaparib + Pemetrexed (first compound 0.08 µM), 0.221; with Olaparib + Pemetrexed (first compound 0.253 µM), 0.195; with Olaparib + Pemetrexed (first compound 2.53 µM), 0.177. Also, the relative viability with Olaparib + Pemetrexed (first compound 8 µM) came out at 0.21.

For the cell line NCI-H322M, the relative viability with Carfilzomib + Dasatinib (first compound 0.001 µM) came out at 0.272; with Carfilzomib + Dasatinib (first compound 0.003162 µM) it was 0.264; with Carfilzomib + Dasatinib (first compound 0.01 µM), 0.255; with Carfilzomib + Dasatinib (first compound 0.03162 µM) it was 0.271; with Carfilzomib + Dasatinib (first compound 0.1 µM), 0.232; with Crizotinib + Bortezomib (first compound 0.01 µM), 1.19. Further, the relative viability in the assay with Crizotinib + Bortezomib (first compound 0.03162 µM) came to 1.23; with Crizotinib + Bortezomib (first compound 0.1 µM), 1.24; with Crizotinib + Bortezomib (first compound 0.3162 µM) it was 1.29; in the assay with Crizotinib + Bortezomib (first compound 1 µM), 1.38; with Crizotinib + Olaparib (first compound 0.03162 µM) it was 0.839; with Crizotinib + Olaparib (first compound 0.1 µM), 0.746. Further, the relative viability came out at 0.658 with Crizotinib + Olaparib (first compound 0.3162 µM); 0.777 with Crizotinib + Olaparib (first compound 1 µM); 0.607 in the assay with Olaparib + Pemetrexed (first compound 0.08 µM); 0.608 in the assay with Olaparib + Pemetrexed (first compound 0.253 µM); 0.619 with Olaparib + Pemetrexed (first compound 2.53 µM); 0.544 in the assay with Olaparib + Pemetrexed (first compound 8 µM).

Turning to NCI-H2085, the relative viability with Carfilzomib + Dasatinib (first compound 0.001 µM) was determined as 0.239; with Carfilzomib + Dasatinib (first compound 0.003162 µM) it was 0.256; with Carfilzomib + Dasatinib (first compound 0.01 µM), 0.255; with Carfilzomib + Dasatinib (first compound 0.03162 µM) it was 0.249; in the assay with Carfilzomib + Dasatinib (first compound 0.1 µM) it was 0.192; with Crizotinib + Bortezomib (first compound 0.01 µM), 0.995. Also, the relative viability with Crizotinib + Bortezomib (first compound 0.03162 µM) stood at 1.22; with Crizotinib + Bortezomib (first compound 0.1 µM), 1.07; with Crizotinib + Bortezomib (first compound 0.3162 µM), 1.02; with Crizotinib + Bortezomib (first compound 1 µM) it was 1.02; with Crizotinib + Olaparib (first compound 0.01 µM) it was 0.737; in the assay with Crizotinib + Olaparib (first compound 0.03162 µM), 0.74. For the same cell line, the relative viability with Crizotinib + Olaparib (first compound 0.1 µM) worked out at 0.755; in the assay with Crizotinib + Olaparib (first compound 0.3162 µM), 0.752; with Crizotinib + Olaparib (first compound 1 µM) it was 0.823; with Olaparib + Pemetrexed (first compound 0.08 µM), 0.971; with Olaparib + Pemetrexed (first compound 0.253 µM), 0.755; with Olaparib + Pemetrexed (first compound 2.53 µM), 0.871. Besides, the relative viability with Olaparib + Pemetrexed (first compound 8 µM) amounted to 0.852.
